This is an account of results in US11801256B2, “Antidepressant-psilocybin co-treatment to assist psychotherapy” (Universitätsspital Basel, priority 2021, dated 2023).

The nature of series [1]: Plasma drug concentrations and pharmacokinetic analyses. To be noted: for elimination half-life / mean time to peak concentrations: psilocin glucuronide after 25 mg psilocybin. The class given is in vivo, human. How it is done:
The blood samples were immediately centrifuged, and the plasma was subsequently stored at −80° C. until analysis.
This allows to determine the concentrations of unconjugated psilocin and of psilocin glucuronide which corresponds to the difference between samples that were incubated with and without glucuronidase.

Series [2] has as its system healthy subjects. Briefly: Adverse effects (list of complaints) and adverse events. The class given is in vivo, human. How it is done:
(§1) Treatment order was random and counterbalanced.
Adverse effects (list of complaints): The list of complaints (LC) consists of 66 items offering a global score measuring physical and general discomfort (Zerssen, 1976). This scale yields a total adverse effects score and reliably measures physical and general discomfort. The LC list was administered 7 hours after administration of the drug with reference to complaints throughout the entire session.

In series [3] the test system is healthy subjects. Briefly: QTc time. The class given is in vivo, human. To be noted: 2.5 hours after psilocybin administration compared with 1 hour before. The source says:
Exclusion criteria: Chronic or acute medical condition, including a history of seizures. Current or previous major psychiatric disorder (e.g. psychotic disorders, mania/hypomania, anxiety disorders, and substance abuse). Psychotic disorder in first-degree relatives, not including psychotic disorders secondary to an apparent medical reason, e.g. brain injury, dementia, or lesions of the brain. Illicit substance use (with the exception of cannabis) more than 10 times or any time within the previous two months. History of an angle closure glaucoma. Pregnant or nursing women. Participation in another clinical trial (currently or within the last 30 days). […] A corrected QT time (QTc), calculated by Bazett's formula, of over 450 milliseconds in males and over 470 milliseconds in females. Tobacco smoking (>10 cigarettes/day). Consumption of alcoholic drinks (>10 drinks/week). Bodyweight <45 kg.

Series [4] concerns healthy subjects. As to the kind of experiment: Subjective effects, visual analog scales (VAS), clinical study. The class given is in vivo, human. The note with it: 25 mg psilocybin. How it is done: as §1
Study procedures: Subjects took part in a 2-hour screening session, two 9.5-hour test sessions where the psilocybin was administered and a 1-hour end-of-study visit. The subjects were informed about the study both verbally and by the approved written consent form regarding the altered state of consciousness, the study procedures and associated risks. The investigator and the subject both personally signed and dated the consent form as confirmation of consent. Subjects were screened using a semi-structured clinical interview for DSM-IV (Diagnostic and Statistical Manual Version 4) (Wittchen et al., 1997) to exclude those with a personal or family (first-degree relative) axis I major psychiatric disorder (acute or past) or a history of illicit drug dependence. Axis I major psychiatric disorders included also addiction disorders. The sessions were conducted in a calm standard hospital room. Only one research subject and one investigator were present during the test sessions. The test sessions began at 9 AM. The subjects then underwent baseline measurements. […] Psilocybin was administered at 11:00 AM. The outcome measures were repeatedly assessed for 7 hours. The subjects were under constant supervision by an investigator until 6 PM. Thus, the subjects were never alone during the 7 hours after drug administration. The subjects were sent home at 6:30 PM.
Subjective Effects Questionnaire (Visual Analog Scales, VAS): VAS was repeatedly used to assess subjective alterations in consciousness over time. Single scales were presented as 100 mm horizontal lines marked with “not at all” on the left and “extremely” on the right. The following VAS items were used: “any drug effect”, “good drug effect”, “bad drug effect”, “drug liking”, “drug high”, “stimulated”, “fear”, “happy”, “content”, “trust”, “talkative”, “perception of time”, “open”, “concentration”, “speed of thinking”, “feeling close to others”, “wanting to be hugged”, “wanting to hug someone”, “desire to be alone”, “desire to be with others”, and “ego dissolution”. The VASs were presented as 100-mm horizontal lines (0-100%), marked from “not at all” on the left to “extremely” on the right. Some VASs were bidirectional (±50%). Marked from “not at all” on the left (−50), to “normal” in the middle (0), to “extremely” on the right (+50).
The criterion for significance was p<0.05.

Series [5] deals with healthy subjects. As to the kind of experiment: Autonomic measures (blood pressure, heart rate, body temperature, pupil size). To be noted: 25 mg psilocybin, healthy subjects. How it is done:
Study design: A double-blind, cross-over design was used with two conditions. […] 2) Pretreatment with placebo for 14 days with the last administration on the study day and administration of 25 mg psilocybin 2 hours later. Treatment order was random and counterbalanced. Between the 14 days pretreatment and the study day, there were at least 2 days washout until the next pretreatment phase began.
Autonomic measures: Blood pressure, heart rate, and body temperature were recorded at baseline and repeatedly throughout the session. Blood pressure (systolic and diastolic) and heart rate were measured with an automatic oscillometric device. Body temperature was measured with an ear thermometer as previously described in detail (Hysek et al., 2010). Measures were taken before and at 0, 0.25, 0.5, 0.75, 1, 1.5, 2, 2.5, 3, 4, 5, 6 and 7 hours after psilocybin administration.
Data analysis: Peak (Emax and/or Emin) or peak change from baseline (ΔEmax) values were determined for repeated measures. The values were then analyzed using paired T-tests using Statistica 12 software (StatSoft, Tulsa, OK, USA). The criterion for significance was p<0.05.

[6] abbreviates: after escitalopram pretreatment.
The mark [7] stands for this setting: after psilocybin, after escitalopram pretreatment.
Where [8] appears, read: after psilocybin, after placebo pretreatment.

On to `O=C(O)Cc1c[nH]c2cccc(O)c12` [4-HIAA, 4-hydroxyindole-3-acetic acid], for which, in series [1] (4-HIAA compared to the glucuronide), the “increase in metabolite concentrations over time” value is reported as “faster”.
With `CN(C)CCc1c[nH]c2cccc(O)c12` [psilocin], the metabolism of psilocin entry in series [1] (after 25 mg psilocybin) was “metabolized to approximately similar extents to inactive 4-HIAA and psilocin-glucuronide”. Besides, the half-life (as a rule, how long it takes for the measured level to halve) in series [1] (human, plasma, oral, non-glucuronidated (nonconjugated) psilocin after 25 mg psilocybin, read-out: elimination half-life (converted)) is 2 h. Moreover, in series [1] (non-glucuronidated (nonconjugated) psilocin after 25 mg psilocybin), the “mean time to maximal plasma concentration” value came to 2 h. In addition, the “conjugation (glucuronidation) in plasma” value in series [1] (samples analyzed with and without glucuronidase) is reported as “A large proportion of psilocin underwent glucuronidation”.
Consider `CN(C)CCc1c[nH]c2cccc(O[C@@H]3O[C@H](C(=O)O)[C@@H](O)[C@H](O)[C@H]3O)c12` [psilocin glucuronide], for which the elimination half-life is 5.2 h in series [1] (setting [6]); 4.5 h in series [1] (after escitalopram pretreatment, listed as Glucuronidated psilocin); 4.5 h in series [1] (after placebo pretreatment); 4.1 h in series [1] (after placebo pretreatment, listed as Glucuronidated psilocin). For the same compound, the “mean time to peak concentrations” value in series [1] (setting [6]) was 3.74 h; in series [1] (after placebo pretreatment) it was 3.8 h; in series [1] (pretreatments not separated) it was 3.2 to 3.4 h.
Regarding `CN(C)CCc1c[nH]c2cccc(OP(=O)(O)O)c12` [Psilocybin, psilocybin], the “type and amount of adverse events following psilocybin administration” value with healthy subjects [2] (after escitalopram and placebo pretreatment) is “comparable”. In the series on healthy subjects [2] (setting [7]), the “adverse aftereffects: abdominal bloating” value was “one”, the “adverse aftereffects: flash backs” value was “one”, the “adverse aftereffects: headaches” value was “six” and the “adverse aftereffects: lack of energy” value is listed as “one”. The “adverse aftereffects: nausea” value with healthy subjects [2] (setting [7]) was “one”. In the series with healthy subjects [2] (setting [8]), the “adverse aftereffects: flash backs” value is recorded as “one”, the “adverse aftereffects: headaches” value is given as “six”, the “adverse aftereffects: nausea” value is “one” and the “adverse aftereffects: vasovagal syncope” value is “one”. In addition, the QTc times result in the series on healthy subjects [3] is given as “did not increase”. Besides, the bad drug effects result in the series with healthy subjects [4] (healthy subjects) was “only moderate”. The anxiety result in the series with healthy subjects [4] (healthy subjects (FIG. 6B)) is reported as “only moderate”. In the series on healthy subjects [5], the body temperature entry is “moderately increased”, the diastolic blood pressure entry is listed as “moderately increased”, the heart rate result is reported as “changed only minimally” and the pupil size entry is listed as “moderately increased”. In the series on healthy subjects [5], the rate-pressure product result is “moderately increased” and the systolic blood pressure result is “moderately increased”.
